Source: patent US9034826B2, “Use of epidermal growth factor for the morphofunctional restoration of peripheral nerves in diabetic neuropathy” (Centro de Ingenieria Genetica y Biotecnologia, priority 2006, dated 2015)

Experiments:
[1] = tested on: Redox state in fragments from the sciatic nerve; experiment: Redox profile in fragments from the sciatic nerve, prevention study (Example 1); type: in vivo, Wistar rats
Procedure: (§1) Male Wistar, with 200-250 grams of body weight, received a subcutaneous injection of streptozotocin, at 75 mg/kg in sodium citrate buffer. Water was then replaced by a 10% sucrose solution during the next 24 h, to prevent deaths caused by hypoglycemia. Glucose levels in blood were monitored every morning during the next 72 hours after the injection. Only animals with sustained glucose values above 15 mmol/L were used. Rats were housing at 4 per cage and fed in the conventional way. A concurrent group of other 80 rats received citrate buffer without streptozotocin and was handled in a similar fashion to the diabetic group. The average value for glycemia during the 72 hours in this group was 5.87 mmol/L.
(§2) All treatments were conducted during 8 weeks, starting one week after streptozotocin injection. The composition used contained 75 μg of human recombinant EGF/ml. Several types of observations were conducted in the animals under study:
Once the treatment was concluded, animals were sacrificed at day 70 after induction of diabetes, 10 days after the last dose was given, and the analysis described above is was completed. Animals were sacrificed by an overdose of anesthesia and perfused with saline buffer pH 7.4. A total of ten animals per experimental group were included for histomorphometric studies, and an equivalent number of rats were used for biochemical determinations. In both systems the sciatic nerves from both limbs were dissected; fragments were kept at −70° C. until processed. The samples taken for histological and/or histomorphometric studies were stained with hematoxilin/eosin and toluidine blue. At least five fragments of the same nerve were quantitatively studied using MADIP program. The fragments were included in blocks of celloidine and gelatin, and those blocks were horizontal and transversally sliced. The following histological indicators were evaluated: • Total number of blood vessels (in epineural/perineural) in 10 microscopic fields using 10× as constant magnification in longitudinal cuts of the nerve. • Percentage of demyelinated fibers. Evaluated by averaging the values per microscopic field (×20, at least five fields). • Percentage of myelin or non-myelin fibers with lesions (dilated or distorted) per microscopic field (×20, at least five fields). • Percentage of endoneurial collagenization (moderated: 25 to 50%; severe: more than 50% of the endoneurial area in transversal slices, and at least three different sections.
Ten animals per experimental group were used to conduct biochemical determinations in the fragments of sciatic nerve collected. The biochemical parameters studied were the following:
Redox Profile: • Activity of total Superoxide Dismutase enzyme (tSOD). • Activity of catalase enzyme. • Intra-axonal accumulation of total hydroperoxides (HPT). • Intra-axonal accumulation of malonyldialdehyde (MDA).

diabetic rats [2] = experiment: Sensory conduction velocity in the tail, prevention study (Example 1); type: in vivo, Wistar rats; details: 75 μg EGF/ml, day 60
Procedure: as §1, §2
Fifteen animals were used in each experimental group. In diabetic neuropathy conduction velocity is generally diminished.
(§3) Distal supra-maximal stimulation in the sciatic-tibial route using bipolar electrodes is was used to study motor conduction. Determination of the conduction velocity in the sensory routes was carried out by applying a stimulus at a proximal point in the tail and measure it 3 cm away.

diabetic rats [3] = experiment: Nociceptive threshold (NCT) pain test, reversion of established diabetic neuropathy (Example 2); type: in vivo, Wistar rats; details: 100 μg EGF in 1 ml i.p. 3 days a week for one month, day 120 after induction of diabetes
Procedure: The pain test, by application of an increasing pressure in the tail, was carried out at days 28 and 56 after initiation of the treatment, using 10 animals per each one of the experimental groups. NCT, expressed in grams, was determined by using an Ugo Basile type analgesimeter to apply a gradually increasing pressure to the tail of the animals until they developed a withdrawal reflex. In human diabetic neuropathy the nociceptive threshold is reduced.
(§4) The aim of this study was to evaluate the neurorestoration effect of the pharmaceutical composition. Male Wistar rats between 200-250 grams of body is weight received a subcutaneous injection of streptozotocin at 75 mg/kg in sodium citrate buffer, and were allowed to evolve until 120 days after disease induction. All rats used in this experiment had shown sustained glucose levels above 15 mmol/L. Animals were handled and fed as previously described. A concurrent control group was set, where animals received saline instead of streptozotocin. […] After this period an electrophysiological characterization of all rats were done and animals were split in two random treatment groups:
Group II. Animals received the pharmaceutical composition with 100 μg of EGF in 1 ml, 3 days a week, by intraperitoneal route. […]

diabetic animals = experiment: Findings in diabetic animals after injection or infiltration of the composition (summary); type: in vivo; details: after three systemic injections or local infiltrations at the periphery of the nerve trunks
right sciatic nerve = experiment: Laser Doppler Perfusion Imaging of blood perfusion of a peripheral nerve, prevention study (Example 1); type: in vivo, Wistar rats; details: diabetic rats, 75 μg EGF/ml, two months
Procedure: as §1, §2
The right sciatic nerve of rats was used as a model. Ten animals were included for each one of the experimental groups. A similar number of non diabetic rats were used to calculate the reference values. A Laser Doppler Perfusion Imaging (LDPI) system was used. Data of perfusion in peripheral tissues to the nerve were programmed as zero values. Control animals received saline during two months before the measurement. […]

diabetic rats [4] = experiment: Conduction velocity of motor fibers, reversion study (Example 2); type: in vivo, Wistar rats; details: established diabetic neuropathy, 100 μg EGF in 1 ml i.p. 3 days a week for one month, day 120 after induction of diabetes
Procedure: as §3, §4
Group II. Animals received the pharmaceutical composition with 100 μg of EGF in 1 ml, 3 days a week, by intraperitoneal route.
To check the effect of the pharmaceutical composition on the restoration of sensory and motor fibers the conduction velocity of an electric impulse was measured at day 120 after induction of diabetes, after treating the animals with the pharmaceutical composition or saline. […]

[5] = Treatment group 1 (once weekly i.p., 8 weeks)
[6] = Treatment group 3 (three times a week i.p., 8 weeks)
[7] = 1 ml i.p. once weekly (Treatment group 1)
[8] = 1 ml i.p. three times a week (Treatment group 3)

EGF containing pharmaceutical composition: Composition with human recombinant EGF: 75 μg/ml in Example 1, 100 μg in 1 ml in Example 2, given intraperitoneally
Catalase activity [1, 5]: 274.60 ± 52.3 units per milligram, of protein per minute
HPT (total hydroperoxides) [1, 5]: 143.05 ± 1.98 nmol/mg of protein
MDA (malonyldialdehyde) [1, 5]: 0.24 ± 0.04 nmol/mg of protein
tSOD (total Superoxide Dismutase activity) [1, 5]: 958.17 ± 244.61 units per milligram, of protein per minute
Catalase activity [1, 6]: 37.62 ± 8.13 units per milligram, of protein per minute
HPT (total hydroperoxides) [1, 6]: 25.15 ± 1.81 nmol/mg of protein
MDA (malonyldialdehyde) [1, 6]: 0.08 ± 0.02 nmol/mg of protein
tSOD (total Superoxide Dismutase activity) [1, 6]: 2102.83 ± 112.67 units per milligram, of protein per minute
SCV (sensitive conduction velocity) (diabetic rats [2]; [7]): 38 ± 6 m/s
SCV (sensitive conduction velocity) (diabetic rats [2]; [8]): 44 ± 9 m/s
UNC (NCT test) (diabetic rats [3]): 80 ± 5 grams
Axon edema (diabetic animals): Reductions in axon edema
Axonal neurofilaments (diabetic animals): Preservation of axonal neurofilaments
Conduction velocity of motor fibers (diabetic animals): Normalization of conduction velocity of motor fibers
Endoneurial collagenization (diabetic animals): Diminution of endoneurial collagenization
Integrity of the myelin sheath of the sciatic nerve (diabetic animals): Improvement in the integrity of the myelin sheath of the sciatic nerve
Vasa nervorum (diabetic animals): Integrity of the vasa nervorum
Laser Doppler perfusion of the sciatic nerve (right sciatic nerve; [7]): 653.4 ± 41.9 LDPI Units
Laser Doppler perfusion of the sciatic nerve (right sciatic nerve; [8]): 988.7 ± 80.3 LDPI Units
Velocity (conduction velocity of motor fibers) (diabetic rats [4]): 54.8 ± 1.66 m/s
